pKd: −log10 of the molar value. Like-named read-outs stand apart in the source and are kept apart here.
Target: T1, peroxisome proliferator activator receptor gamma (PPARG) (Homo sapiens, UniProt P37231)
T1 sequence (P37231 1-505): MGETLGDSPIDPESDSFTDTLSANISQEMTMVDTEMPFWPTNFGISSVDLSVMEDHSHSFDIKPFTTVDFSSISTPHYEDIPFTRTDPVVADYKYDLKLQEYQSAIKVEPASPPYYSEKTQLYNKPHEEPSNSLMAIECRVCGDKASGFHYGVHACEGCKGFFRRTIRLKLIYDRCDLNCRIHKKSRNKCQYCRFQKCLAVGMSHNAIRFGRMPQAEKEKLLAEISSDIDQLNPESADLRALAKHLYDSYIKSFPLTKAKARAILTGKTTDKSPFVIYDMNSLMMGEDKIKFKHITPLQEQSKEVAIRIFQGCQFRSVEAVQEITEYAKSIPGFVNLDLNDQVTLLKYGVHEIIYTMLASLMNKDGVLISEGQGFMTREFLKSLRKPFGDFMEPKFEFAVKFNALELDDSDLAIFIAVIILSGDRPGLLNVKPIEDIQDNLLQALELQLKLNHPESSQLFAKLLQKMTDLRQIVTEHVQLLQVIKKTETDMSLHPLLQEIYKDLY
Test: SPR (Biacore T200), PPARG immobilized on CM5 chip
Format: binding

SMILES	pKd (read-out: Kd)	pKd
O=C(/C=C/c1ccc(O)c(O)c1/C=C/c1ccc(O)c(O)c1)O[C@H](Cc1ccc(O)c(O)c1)C(=O)O [Salvianolic acid A]	5.46	
O=c1c(O)c(-c2ccc(O)cc2)oc2cc(O)cc(O)c12 [Kaempferol]	4.29	
CCCCC/C=C/C=C1/C(=O)C=C[C@@H]1C/C=C\CCCC(=O)O [15d-PGJ2, reference compound]		5.01
COc1cc2c(c(OC)c1OC)-c1c(cc3c(c1OC)OCO3)CC(C)C(C)C2 (stereo not shown) [schisandrin B]	4.66	

Source: article PMC5976863, “The Active Components of Fuzheng Huayu Formula and Their Potential Mechanism of Action in Inhibiting the Hepatic Stellate Cells Viability – A Network Pharmacology and Transcriptomics Approach” (Frontiers in Pharmacology, 2018)
